Measured values published in PubChem BioAssay (NCI).
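How tested: cells in 96-well plates exposed to compound for 48 hours at five concentrations. TGI is the concentration that stops growth completely.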

Legend:
Experiment in all cases: DTP human tumour cell line panel, 48 h
786-0 renal = tested on: 786-0 renal
A498 renal = tested on: A498 renal
A549 NSCLC = tested on: A549 NSCLC
ACHN renal = tested on: ACHN renal
BT-549 breast = tested on: BT-549 breast
CAKI-1 renal = tested on: CAKI-1 renal
CCRF-CEM leukemia = tested on: CCRF-CEM leukemia
COLO 205 colon = tested on: COLO 205 colon
DU-145 prostate = tested on: DU-145 prostate
EKVX NSCLC = tested on: EKVX NSCLC
HCC-2998 colon = tested on: HCC-2998 colon
HCT-116 colon = tested on: HCT-116 colon
HCT-15 colon = tested on: HCT-15 colon
HL-60(TB) leukemia = tested on: HL-60(TB) leukemia
HOP-62 NSCLC = tested on: HOP-62 NSCLC
HT29 colon = tested on: HT29 colon
IGROV1 ovarian = tested on: IGROV1 ovarian
K-562 leukemia = tested on: K-562 leukemia
KM12 colon = tested on: KM12 colon
M14 melanoma = tested on: M14 melanoma
MALME-3M melanoma = tested on: MALME-3M melanoma
MCF7 breast = tested on: MCF7 breast
MDA-MB-231 breast = tested on: MDA-MB-231 breast
MDA-MB-435 = tested on: MDA-MB-435
MDA-N = tested on: MDA-N
MOLT-4 leukemia = tested on: MOLT-4 leukemia
NCI-H460 lung = tested on: NCI-H460 lung
NCI/ADR-RES ovarian = tested on: NCI/ADR-RES ovarian
OVCAR-3 ovarian = tested on: OVCAR-3 ovarian
OVCAR-5 ovarian = tested on: OVCAR-5 ovarian
OVCAR-8 ovarian = tested on: OVCAR-8 ovarian
PC-3 prostate = tested on: PC-3 prostate
RPMI-8226 leukemia = tested on: RPMI-8226 leukemia
RXF 393 renal = tested on: RXF 393 renal
SF-268 CNS = tested on: SF-268 CNS
SF-295 CNS = tested on: SF-295 CNS
SF-539 CNS = tested on: SF-539 CNS
SK-MEL-2 melanoma = tested on: SK-MEL-2 melanoma
SK-MEL-28 melanoma = tested on: SK-MEL-28 melanoma
SK-MEL-5 melanoma = tested on: SK-MEL-5 melanoma
SK-OV-3 ovarian = tested on: SK-OV-3 ovarian
SN12C renal = tested on: SN12C renal
SNB-19 CNS = tested on: SNB-19 CNS
SNB-75 CNS = tested on: SNB-75 CNS
SR leukemia = tested on: SR leukemia
SW-620 colon = tested on: SW-620 colon
T-47D breast = tested on: T-47D breast
TK-10 renal = tested on: TK-10 renal
U251 CNS = tested on: U251 CNS
UACC-257 melanoma = tested on: UACC-257 melanoma
UACC-62 melanoma = tested on: UACC-62 melanoma
UO-31 renal = tested on: UO-31 renal
HOP-92 NSCLC = tested on: HOP-92 NSCLC
HS 578T breast = tested on: HS 578T breast
LOX IMVI melanoma = tested on: LOX IMVI melanoma
NCI-H226 lung = tested on: NCI-H226 lung
NCI-H23 lung = tested on: NCI-H23 lung
NCI-H522 lung = tested on: NCI-H522 lung
OVCAR-4 ovarian = tested on: OVCAR-4 ovarian

C/C=C1\C(=O)O[C@H]2C/C(C)=C/CC/C(C)=C/CC[C@@]3(C)O[C@@H]3C[C@@H]12
TGI (786-0 renal): > 100 µM | TGI (A498 renal): > 100 µM | TGI (A549 NSCLC): > 100 µM | TGI (ACHN renal): > 100 µM | TGI (BT-549 breast): > 100 µM | TGI (CAKI-1 renal): > 100 µM | TGI (CCRF-CEM leukemia): > 100 µM | TGI (COLO 205 colon): > 100 µM | TGI (DU-145 prostate): > 100 µM | TGI (EKVX NSCLC): > 100 µM | TGI (HCC-2998 colon): > 100 µM | TGI (HCT-116 colon): > 100 µM | TGI (HCT-15 colon): > 100 µM | TGI (HL-60(TB) leukemia): > 100 µM | TGI (HOP-62 NSCLC): > 100 µM | TGI (HT29 colon): > 100 µM | TGI (IGROV1 ovarian): > 100 µM | TGI (K-562 leukemia): > 100 µM | TGI (KM12 colon): > 100 µM | TGI (M14 melanoma): > 100 µM | TGI (MALME-3M melanoma): > 100 µM | TGI (MCF7 breast): > 100 µM | TGI (MDA-MB-231 breast): > 100 µM | TGI (MDA-MB-435): > 100 µM | TGI (MDA-N): > 100 µM | TGI (MOLT-4 leukemia): > 100 µM | TGI (NCI-H460 lung): > 100 µM | TGI (NCI/ADR-RES ovarian): > 100 µM | TGI (OVCAR-3 ovarian): > 100 µM | TGI (OVCAR-5 ovarian): > 100 µM | TGI (OVCAR-8 ovarian): > 100 µM | TGI (PC-3 prostate): > 100 µM | TGI (RPMI-8226 leukemia): > 100 µM | TGI (RXF 393 renal): > 100 µM | TGI (SF-268 CNS): > 100 µM | TGI (SF-295 CNS): > 100 µM | TGI (SF-539 CNS): > 100 µM | TGI (SK-MEL-2 melanoma): > 100 µM | TGI (SK-MEL-28 melanoma): > 100 µM | TGI (SK-MEL-5 melanoma): > 100 µM | TGI (SK-OV-3 ovarian): > 100 µM | TGI (SN12C renal): > 100 µM | TGI (SNB-19 CNS): > 100 µM | TGI (SNB-75 CNS): > 100 µM | TGI (SR leukemia): > 100 µM | TGI (SW-620 colon): > 100 µM | TGI (T-47D breast): > 100 µM | TGI (TK-10 renal): > 100 µM | TGI (U251 CNS): > 100 µM | TGI (UACC-257 melanoma): > 100 µM | TGI (UACC-62 melanoma): > 100 µM | TGI (UO-31 renal): > 100 µM

CC1(C)CN=C(Nc2ccc(F)cc2)S1
TGI (786-0 renal): > 100 µM | TGI (A549 NSCLC): > 100 µM | TGI (ACHN renal): > 100 µM | TGI (BT-549 breast): > 100 µM | TGI (CAKI-1 renal): > 100 µM | TGI (CCRF-CEM leukemia): > 100 µM | TGI (COLO 205 colon): > 100 µM | TGI (DU-145 prostate): > 100 µM | TGI (EKVX NSCLC): > 100 µM | TGI (HCC-2998 colon): > 100 µM | TGI (HCT-116 colon): > 100 µM | TGI (HCT-15 colon): > 100 µM | TGI (HL-60(TB) leukemia): > 100 µM | TGI (HOP-62 NSCLC): > 100 µM | TGI (HOP-92 NSCLC): > 100 µM | TGI (HS 578T breast): > 100 µM | TGI (HT29 colon): > 100 µM | TGI (IGROV1 ovarian): > 100 µM | TGI (K-562 leukemia): > 100 µM | TGI (KM12 colon): > 100 µM | TGI (LOX IMVI melanoma): > 100 µM | TGI (M14 melanoma): > 100 µM | TGI (MALME-3M melanoma): > 100 µM | TGI (MCF7 breast): > 100 µM | TGI (MDA-MB-435): > 100 µM | TGI (MDA-N): > 100 µM | TGI (MOLT-4 leukemia): > 100 µM | TGI (NCI-H226 lung): > 100 µM | TGI (NCI-H23 lung): > 100 µM | TGI (NCI-H522 lung): > 100 µM | TGI (NCI/ADR-RES ovarian): > 100 µM | TGI (OVCAR-3 ovarian): > 100 µM | TGI (OVCAR-4 ovarian): > 100 µM | TGI (OVCAR-5 ovarian): > 100 µM | TGI (OVCAR-8 ovarian): > 100 µM | TGI (PC-3 prostate): > 100 µM | TGI (RPMI-8226 leukemia): > 100 µM | TGI (RXF 393 renal): > 100 µM | TGI (SF-268 CNS): > 100 µM | TGI (SF-295 CNS): > 100 µM | TGI (SF-539 CNS): > 100 µM | TGI (SK-MEL-2 melanoma): > 100 µM | TGI (SK-MEL-28 melanoma): > 100 µM | TGI (SK-MEL-5 melanoma): > 100 µM | TGI (SK-OV-3 ovarian): > 100 µM | TGI (SN12C renal): > 100 µM | TGI (SNB-19 CNS): > 100 µM | TGI (SNB-75 CNS): > 100 µM | TGI (SR leukemia): > 100 µM | TGI (SW-620 colon): > 100 µM | TGI (T-47D breast): > 100 µM | TGI (TK-10 renal): > 100 µM | TGI (U251 CNS): > 100 µM | TGI (UACC-257 melanoma): > 100 µM | TGI (UACC-62 melanoma): > 100 µM | TGI (UO-31 renal): > 100 µM

O=c1c2ccc(Cl)cc2oc2c(CNc3ccc(S(=O)(=O)Nc4nccs4)cc3)cccc12
TGI (786-0 renal): > 100 µM | TGI (A498 renal): > 100 µM | TGI (A549 NSCLC): > 100 µM | TGI (ACHN renal): > 100 µM | TGI (BT-549 breast): > 100 µM | TGI (CAKI-1 renal): 5.51 µM | TGI (CCRF-CEM leukemia): > 100 µM | TGI (COLO 205 colon): > 100 µM | TGI (DU-145 prostate): > 100 µM | TGI (EKVX NSCLC): > 100 µM | TGI (HCC-2998 colon): > 100 µM | TGI (HCT-116 colon): > 100 µM | TGI (HCT-15 colon): > 100 µM | TGI (HOP-62 NSCLC): > 100 µM | TGI (HOP-92 NSCLC): > 100 µM | TGI (HT29 colon): > 100 µM | TGI (IGROV1 ovarian): > 100 µM | TGI (K-562 leukemia): > 100 µM | TGI (KM12 colon): > 100 µM | TGI (LOX IMVI melanoma): > 100 µM | TGI (M14 melanoma): > 100 µM | TGI (MALME-3M melanoma): > 100 µM | TGI (MCF7 breast): > 100 µM | TGI (MDA-MB-231 breast): > 100 µM | TGI (MDA-MB-435): > 100 µM | TGI (MDA-N): > 100 µM | TGI (MOLT-4 leukemia): > 100 µM | TGI (NCI-H226 lung): > 100 µM | TGI (NCI-H23 lung): > 100 µM | TGI (NCI-H522 lung): > 100 µM | TGI (NCI/ADR-RES ovarian): > 100 µM | TGI (OVCAR-3 ovarian): > 100 µM | TGI (OVCAR-4 ovarian): > 100 µM | TGI (OVCAR-5 ovarian): > 100 µM | TGI (OVCAR-8 ovarian): > 100 µM | TGI (PC-3 prostate): > 100 µM | TGI (RPMI-8226 leukemia): > 100 µM | TGI (RXF 393 renal): > 100 µM | TGI (SF-268 CNS): > 100 µM | TGI (SF-295 CNS): > 100 µM | TGI (SF-539 CNS): > 100 µM | TGI (SK-MEL-2 melanoma): > 100 µM | TGI (SK-MEL-28 melanoma): > 100 µM | TGI (SK-MEL-5 melanoma): > 100 µM | TGI (SK-OV-3 ovarian): > 100 µM | TGI (SN12C renal): > 100 µM | TGI (SNB-19 CNS): > 100 µM | TGI (SR leukemia): > 100 µM | TGI (SW-620 colon): > 100 µM | TGI (T-47D breast): > 100 µM | TGI (TK-10 renal): > 100 µM | TGI (U251 CNS): > 100 µM | TGI (UACC-257 melanoma): > 100 µM | TGI (UACC-62 melanoma): > 100 µM | TGI (UO-31 renal): > 100 µM
